The results in this text go back to ChEMBL document CHEMBL4311992, “Discovery of 3-(((9H-purin-6-yl)amino)methyl)-4,6-dimethylpyridin-2(1H)-one derivatives as novel tubulin polymerization inhibitors for treatment of cancer” (Eur J Med Chem, 2019).

Data set [1] addresses Serine/threonine-protein kinase STK11 (Homo sapiens) (UniProt Q15831). Briefly: Inhibition of recombinant full-length human LKB1 assessed as residual activity at 10 uM using LSNLYHQGKFLQTFCGSPLYRRR as substrate measured after 40 mins in presence of [gamma33P]ATP by scintillation counting method.
In data set [2] the target is Casein kinase II subunit alpha (Homo sapiens) (UniProt P68400). Briefly: Inhibition of recombinant full length human CK2alpha1 assessed as residual activity at 10 uM using RRRDDDSDDD as substrate measured after 40 mins in presence of [gamma33P]ATP by scintillation counting method.
For another data set, the system named is HCT-15. Briefly: Antiproliferative activity against human HCT15 cells assessed as reduction in cell viability after 72 hrs by MTT assay. In kind it is functional, cell-based. As to conditions: HCT-15, 72 h.
The subject of data set [3] is SW-620. Briefly: Induction of apoptosis in human SW620 cells assessed as increase in cleaved caspase9 expression measured after 48 hrs by Western blot analysis. The class given is functional, cell-based. A general note: In western blotting, separated proteins are transferred to a membrane and probed.
Data set [4] concerns the target Casein kinase I isoform epsilon (Homo sapiens) (UniProt P49674). In words: Inhibition of human CK1epsilon assessed as residual activity at 10 uM using KRRRALS(p)VASLPGL as substrate measured after 120 mins in presence of [gamma33P]ATP by scintillation counting method.
In data set [5] the target is Tyrosine-protein kinase BTK (Homo sapiens) (UniProt Q06187). Briefly: Inhibition of full-length recombinant human BTK assessed as residual activity at 10 uM using KVEKIGEGTYGVVYK as substrate measured after 40 mins in presence of [gamma33P]ATP by scintillation counting method.
Data set [6] addresses Serine/threonine-protein kinase PAK 5 (Homo sapiens) (UniProt Q9P286). In words: Inhibition of recombinant human PAK5 (425 to end residues) assessed as residual activity at 10 uM using RRRLSFAEPG as substrate measured after 40 mins in presence of [gamma33P]ATP by scintillation counting method.
The test system of data set [7] is SW-620. Briefly: Induction of apoptosis in human SW620 cells measured after 48 hrs by Annexin V-FITC/propidium iodide staining-based flow cytometric analysis. In kind it is functional, cell-based. A general note: Flow cytometry measures light scatter and fluorescence of single cells or particles in a stream.
The target in data set [8] is CDK6/cyclin D3 (Homo sapiens) (UniProt P30281+Q00534). In words: Inhibition of recombinant full-length human CDK6/cyclin D3 assessed as residual activity at 10 uM using histone H1 as substrate measured after 40 mins in presence of [gamma33P]ATP by scintillation counting method. The class given is protein-complex assay.
Data set [9] deals with Tyrosine-protein kinase ABL1 (Homo sapiens), P00519 [M351T]. Briefly: Inhibition of recombinant human ABL M351T mutant (27 to end residues) assessed as residual activity at 10 uM using EAIYAAPFAKKK as substrate measured after 40 mins in presence of [gamma33P]ATP by scintillation counting method.
Data set [10] relates to Hepatocyte growth factor receptor (Homo sapiens), P08581 [Y1230D]. Briefly: Inhibition of recombinant human MET A1209G/V1290L/Y1248D mutant (974 to end residues) assessed as residual activity at 10 uM using KKKGQEEEYVFIE as substrate measured after 40 mins in presence of [gamma33P]ATP by scintillation counting method.
The species entered for a further data set is Homo sapiens. In words: Inhibition of recombinant full-length human PI3K p120gamma R459Q mutant assessed as residual activity at 10 uM using phosphatidylinositol-4, 5-bisphosphate as substrate measured after 40 mins by fluorescence assay.
The target of data set [11] is Maternal embryonic leucine zipper kinase (Homo sapiens) (UniProt Q14680). Briefly: Inhibition of recombinant human MELK (1 to 340 residues) assessed as residual activity at 10 uM using KKLNRTLSFAEPG as substrate measured after 40 mins in presence of [gamma33P]ATP by scintillation counting method.
In data set [12] the test system is SW-620. In words: Induction of apoptosis in human SW620 cells assessed as viable cells at 100 nM measured after 48 hrs by Annexin V-FITC/propidium iodide staining-based flow cytometry (reference value: 94.7%). In kind it is functional. The settings on record: SW-620, 48 h, read-out: Activity.
Data set [13] deals with Mitogen-activated protein kinase 14 (Homo sapiens) (UniProt Q16539). In words: Inhibition of recombinant full-length human SAPK2a assessed as residual activity at 10 uM using myelin basic protein as substrate measured after 40 mins in presence of [gamma33P]ATP by scintillation counting method.
The subject of data set [14] is Hepatocyte growth factor receptor (Homo sapiens), P08581 [D1228N]. In words: Inhibition of recombinant human MET A1209G/V1290L/D1246N mutant (974 to end residues) assessed as residual activity at 10 uM using KKKGQEEEYVFIE as substrate measured after 40 mins in presence of [gamma33P]ATP by scintillation counting method.
Data set [15] is described as follows: Toxicity in Balb/c mouse lung at 80 mg/kg after 4 weeks by hematoxylin and eosin staining-based assay. In kind it is organism-based. The settings on record: in vivo, 672 h.
The target of data set [16] is Ephrin type-A receptor 2 (Homo sapiens) (UniProt P29317). In words: Inhibition of recombinant human EphA2 (596 to 900 residues) assessed as residual activity at 10 uM using poly(Glu, Tyr) 4:1 as substrate measured after 40 mins in presence of [gamma33P]ATP by scintillation counting method.
Data set [17] has as its target Tyrosine-protein kinase FRK (Homo sapiens) (UniProt P42685). Briefly: Inhibition of human PTK5 (218 to end residues) using GGEEEEYFELVKKKK as substrate measured after 40 mins in presence of [gamma33P]ATP by scintillation counting method. On the set-up: scale not given: the % may be the effect or the level left.
Data set [18] addresses Fibroblast growth factor receptor 4 (Homo sapiens) (UniProt P22455). Briefly: Inhibition of recombinant human FGFR4 (442 to 755 residues) assessed as residual activity at 10 uM using poly(Glu, Tyr) 4:1 as substrate measured after 40 mins in presence of [gamma33P]ATP by scintillation counting method.
The target of data set [19] is G protein-coupled receptor kinase 3 (Homo sapiens) (UniProt P35626). In words: Inhibition of recombinant full-length human GRK5 assessed as residual activity at 10 uM using casein as substrate measured after 40 mins in presence of [gamma33P]ATP by scintillation counting method.
Data set [20] concerns the target CDK3/Cyclin E (Homo sapiens) (UniProt P24864+Q00526). In words: Inhibition of recombinant full-length human CDK3/cyclinE assessed as residual activity at 10 uM using histone H1 as substrate measured after 40 mins in presence of [gamma33P]ATP by scintillation counting method. The class given is protein-complex assay.
Data set [21] deals with Proto-oncogene tyrosine-protein kinase receptor Ret (Homo sapiens) (UniProt P07949). In words: Inhibition of human Ret (658 to end residues) using KKKSPGEYVNIEFG as substrate measured after 40 mins in presence of [gamma33P]ATP by scintillation counting method. The arrangement: scale not given: the % may be the effect or the level left.
The target in data set [22] is Serine/threonine-protein kinase 35 (Homo sapiens) (UniProt Q8TDR2). Briefly: Inhibition of recombinant full length human CLIK1 assessed as residual activity at 10 uM using RSRSRSRSRSRSRSR as substrate measured after 40 mins in presence of [gamma33P]ATP by scintillation counting method.

Casein kinase II subunit alpha (Homo sapiens), sequence (P68400 whole entry, looked up): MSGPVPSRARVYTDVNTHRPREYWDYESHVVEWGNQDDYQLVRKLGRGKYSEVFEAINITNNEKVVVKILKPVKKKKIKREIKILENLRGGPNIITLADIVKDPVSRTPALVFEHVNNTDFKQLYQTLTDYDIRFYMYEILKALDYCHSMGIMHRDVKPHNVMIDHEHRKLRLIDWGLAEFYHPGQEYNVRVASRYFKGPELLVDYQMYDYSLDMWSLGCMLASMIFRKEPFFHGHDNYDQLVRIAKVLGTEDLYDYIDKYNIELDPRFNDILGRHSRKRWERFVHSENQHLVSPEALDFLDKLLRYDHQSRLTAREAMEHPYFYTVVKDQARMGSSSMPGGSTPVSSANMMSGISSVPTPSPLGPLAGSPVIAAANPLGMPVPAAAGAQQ
CDK3/Cyclin E (Homo sapiens), sequence (P24864 whole entry, looked up): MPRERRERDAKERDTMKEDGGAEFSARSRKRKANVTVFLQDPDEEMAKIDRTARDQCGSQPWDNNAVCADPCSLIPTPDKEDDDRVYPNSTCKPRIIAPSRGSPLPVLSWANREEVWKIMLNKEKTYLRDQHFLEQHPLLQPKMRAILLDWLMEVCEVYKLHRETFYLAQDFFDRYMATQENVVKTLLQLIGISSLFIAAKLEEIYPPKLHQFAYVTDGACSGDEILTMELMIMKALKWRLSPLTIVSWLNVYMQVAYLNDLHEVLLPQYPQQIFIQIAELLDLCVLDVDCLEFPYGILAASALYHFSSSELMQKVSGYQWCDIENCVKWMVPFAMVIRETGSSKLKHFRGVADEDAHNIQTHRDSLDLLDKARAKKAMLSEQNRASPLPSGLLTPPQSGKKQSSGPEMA
CDK3/Cyclin E (Homo sapiens), sequence (Q00526 whole entry, looked up): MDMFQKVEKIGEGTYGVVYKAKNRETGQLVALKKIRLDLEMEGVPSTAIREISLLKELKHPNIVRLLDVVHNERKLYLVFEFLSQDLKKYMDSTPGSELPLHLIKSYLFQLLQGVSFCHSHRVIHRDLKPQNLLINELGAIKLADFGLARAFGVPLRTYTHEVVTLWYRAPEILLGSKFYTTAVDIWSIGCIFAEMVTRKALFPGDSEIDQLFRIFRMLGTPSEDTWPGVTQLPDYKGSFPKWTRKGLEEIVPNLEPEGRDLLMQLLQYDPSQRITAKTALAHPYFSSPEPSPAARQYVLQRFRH
Casein kinase I isoform epsilon (Homo sapiens), sequence (P49674 whole entry, looked up, canonical isoform): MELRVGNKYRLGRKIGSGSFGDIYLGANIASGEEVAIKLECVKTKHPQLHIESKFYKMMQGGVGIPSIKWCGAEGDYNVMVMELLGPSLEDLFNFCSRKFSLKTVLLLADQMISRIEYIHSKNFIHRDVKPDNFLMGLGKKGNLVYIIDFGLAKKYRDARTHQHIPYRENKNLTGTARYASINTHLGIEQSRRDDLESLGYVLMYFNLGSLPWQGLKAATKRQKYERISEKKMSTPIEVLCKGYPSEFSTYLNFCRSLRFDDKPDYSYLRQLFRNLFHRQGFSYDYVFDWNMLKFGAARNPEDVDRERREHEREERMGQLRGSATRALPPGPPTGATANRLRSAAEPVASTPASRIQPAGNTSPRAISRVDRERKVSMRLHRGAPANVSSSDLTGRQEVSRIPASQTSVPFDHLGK
Ephrin type-A receptor 2 (Homo sapiens), sequence (P29317 whole entry, the tested form may be a part): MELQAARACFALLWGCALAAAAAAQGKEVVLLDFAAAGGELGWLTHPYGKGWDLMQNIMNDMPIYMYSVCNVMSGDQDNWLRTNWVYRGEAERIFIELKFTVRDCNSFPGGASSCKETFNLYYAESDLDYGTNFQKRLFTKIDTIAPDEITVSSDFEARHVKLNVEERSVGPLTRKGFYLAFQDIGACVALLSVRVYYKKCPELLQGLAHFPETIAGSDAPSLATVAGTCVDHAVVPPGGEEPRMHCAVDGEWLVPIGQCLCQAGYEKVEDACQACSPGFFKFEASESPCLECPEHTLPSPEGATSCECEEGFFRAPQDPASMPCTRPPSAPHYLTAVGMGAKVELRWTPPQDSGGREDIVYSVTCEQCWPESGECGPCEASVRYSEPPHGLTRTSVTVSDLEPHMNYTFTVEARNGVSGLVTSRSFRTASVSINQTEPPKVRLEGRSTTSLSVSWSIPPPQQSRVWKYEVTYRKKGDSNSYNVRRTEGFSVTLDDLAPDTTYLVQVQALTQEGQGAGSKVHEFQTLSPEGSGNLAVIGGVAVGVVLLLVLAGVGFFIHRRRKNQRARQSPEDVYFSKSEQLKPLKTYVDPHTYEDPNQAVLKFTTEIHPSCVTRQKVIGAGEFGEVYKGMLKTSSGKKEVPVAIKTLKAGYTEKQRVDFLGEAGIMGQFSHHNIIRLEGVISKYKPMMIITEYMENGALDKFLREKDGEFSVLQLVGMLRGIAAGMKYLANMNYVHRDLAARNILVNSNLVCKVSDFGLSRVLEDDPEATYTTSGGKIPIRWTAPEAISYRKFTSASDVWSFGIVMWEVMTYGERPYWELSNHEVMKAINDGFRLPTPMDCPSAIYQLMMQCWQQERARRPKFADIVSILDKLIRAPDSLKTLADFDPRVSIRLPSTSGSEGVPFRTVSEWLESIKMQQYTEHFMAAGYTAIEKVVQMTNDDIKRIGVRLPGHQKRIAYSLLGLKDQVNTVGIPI
Maternal embryonic leucine zipper kinase (Homo sapiens), sequence (Q14680 whole entry, looked up, the tested form may be a part): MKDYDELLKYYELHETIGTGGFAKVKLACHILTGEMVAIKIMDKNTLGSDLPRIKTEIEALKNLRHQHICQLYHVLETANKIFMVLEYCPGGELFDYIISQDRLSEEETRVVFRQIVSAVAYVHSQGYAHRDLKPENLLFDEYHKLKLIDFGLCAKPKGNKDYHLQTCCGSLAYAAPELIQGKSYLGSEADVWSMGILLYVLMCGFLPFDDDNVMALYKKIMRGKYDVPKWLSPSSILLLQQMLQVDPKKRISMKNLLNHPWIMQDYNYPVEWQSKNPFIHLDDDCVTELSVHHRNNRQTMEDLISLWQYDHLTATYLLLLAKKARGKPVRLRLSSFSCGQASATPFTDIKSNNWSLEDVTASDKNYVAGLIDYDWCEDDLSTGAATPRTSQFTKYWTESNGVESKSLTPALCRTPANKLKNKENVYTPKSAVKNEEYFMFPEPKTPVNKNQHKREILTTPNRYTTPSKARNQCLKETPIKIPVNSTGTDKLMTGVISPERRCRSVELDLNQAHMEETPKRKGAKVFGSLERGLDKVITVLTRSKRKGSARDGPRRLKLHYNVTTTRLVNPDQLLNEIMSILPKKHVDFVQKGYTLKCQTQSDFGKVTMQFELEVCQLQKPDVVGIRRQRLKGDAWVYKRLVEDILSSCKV
Serine/threonine-protein kinase STK11 (Homo sapiens), sequence (Q15831 whole entry): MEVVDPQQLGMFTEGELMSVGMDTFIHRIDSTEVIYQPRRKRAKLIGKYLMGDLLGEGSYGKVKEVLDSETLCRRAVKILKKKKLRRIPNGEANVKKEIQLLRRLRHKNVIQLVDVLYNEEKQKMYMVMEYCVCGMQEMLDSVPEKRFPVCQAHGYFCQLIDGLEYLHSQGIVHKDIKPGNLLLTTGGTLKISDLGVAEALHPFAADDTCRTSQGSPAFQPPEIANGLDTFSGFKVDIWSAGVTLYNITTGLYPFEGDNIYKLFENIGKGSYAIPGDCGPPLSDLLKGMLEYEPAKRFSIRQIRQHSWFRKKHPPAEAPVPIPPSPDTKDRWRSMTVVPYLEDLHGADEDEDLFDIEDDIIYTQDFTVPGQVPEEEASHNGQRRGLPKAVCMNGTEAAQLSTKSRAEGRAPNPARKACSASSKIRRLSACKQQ
Mitogen-activated protein kinase 14 (Homo sapiens), sequence (Q16539 whole entry): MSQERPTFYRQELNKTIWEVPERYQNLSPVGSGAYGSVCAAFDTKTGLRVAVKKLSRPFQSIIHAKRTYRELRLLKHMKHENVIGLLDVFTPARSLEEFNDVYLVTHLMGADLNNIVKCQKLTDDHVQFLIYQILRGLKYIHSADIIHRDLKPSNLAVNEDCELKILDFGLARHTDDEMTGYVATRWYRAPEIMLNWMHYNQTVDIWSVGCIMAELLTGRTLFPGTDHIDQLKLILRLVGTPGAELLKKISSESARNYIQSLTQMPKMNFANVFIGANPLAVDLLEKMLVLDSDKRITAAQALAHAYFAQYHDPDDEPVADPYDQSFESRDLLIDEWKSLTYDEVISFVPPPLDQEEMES
Fibroblast growth factor receptor 4 (Homo sapiens), sequence (P22455 22-802 limits assumed): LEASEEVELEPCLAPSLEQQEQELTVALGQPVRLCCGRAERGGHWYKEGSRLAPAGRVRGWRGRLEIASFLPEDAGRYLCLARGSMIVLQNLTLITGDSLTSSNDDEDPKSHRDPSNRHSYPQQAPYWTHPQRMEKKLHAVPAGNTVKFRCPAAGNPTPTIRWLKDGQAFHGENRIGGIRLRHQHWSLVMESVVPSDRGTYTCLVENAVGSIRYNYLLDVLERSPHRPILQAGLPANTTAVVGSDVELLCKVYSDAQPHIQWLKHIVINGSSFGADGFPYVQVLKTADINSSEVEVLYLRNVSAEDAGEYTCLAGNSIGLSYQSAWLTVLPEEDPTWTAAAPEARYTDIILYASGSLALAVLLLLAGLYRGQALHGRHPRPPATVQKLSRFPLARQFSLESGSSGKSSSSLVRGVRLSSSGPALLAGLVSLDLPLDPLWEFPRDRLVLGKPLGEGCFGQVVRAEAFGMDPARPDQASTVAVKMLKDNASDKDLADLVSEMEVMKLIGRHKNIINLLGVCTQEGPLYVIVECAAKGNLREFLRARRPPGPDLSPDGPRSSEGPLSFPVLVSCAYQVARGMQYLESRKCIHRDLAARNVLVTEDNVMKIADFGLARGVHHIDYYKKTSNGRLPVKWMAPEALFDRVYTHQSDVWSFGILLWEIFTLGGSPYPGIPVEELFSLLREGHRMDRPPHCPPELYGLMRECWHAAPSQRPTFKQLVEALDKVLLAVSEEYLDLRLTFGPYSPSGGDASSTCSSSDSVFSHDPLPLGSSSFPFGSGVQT

In the case of `Cc1cc(C)c(CNc2nc(Cl)nc3c2ncn3C2CCCC2)c(=O)[nH]1`, the Activity in data set [1] was 110%; in data set [2] it was 88%; in the data set with SW-620 [3], “Dose-dependent effect”; in data set [4], 100%; in data set [5] it was 85%; in data set [6], 110%. For the same compound, the Activity result with SW-620 [7] is “Dose-dependent effect”; in data set [8], 98.5%; in [9], 96.5%; in data set [10] it was 102%; in the data set filed under Homo sapiens, 109%; in [11], 114%. The Activity in data set [13] is 109%; in data set [14] it was 112%; in data set [15], “Non-Toxic”; in [16] it was 91%; in [17] it was 102%; in [18], 100%. The Activity is 105% in data set [19], 113% in data set [20], 100% in [21] and 65.5% in [22]. The IC50 in the data set with HCT-15 stood at 61 nM. Further, in the data set on SW-620 [12], the viability at 0.1 µM amounted to 66%.

For orientation: IC50 means the concentration that gives 50% inhibition.
